# According to patent publication US11331369B2, “Endoparasitic depsipeptides” (Zoetis Services LLC, priority 2017, dated 2022):
# System: microfilariae of Dirofilaria immitis
# Test: Dirofilaria immitis, Microfilaria (DiMF) In vitro Assay
# Type: cell-based
# Settings: 72 h, read-out: DiMF Minimum Effective Dose (MED), approximately 72 hours incubation, microfilariae assessed for survival or paralysis
row,Compound,minimal effective concentration [µM]
1,"CCc1nccn1Cc1ccc(C[C@H]2OC(=O)[C@H](CC(C)C)N(C)C(=O)[C@@H](C)OC(=O)[C@H](CC(C)C)N(C)C(=O)[C@@H](Cc3cccc(Cn4ccnc4CC)c3)OC(=O)[C@H](CC(C)C)N(C)C(=O)[C@@H](C)OC(=O)[C@H](CC(C)C)N(C)C2=O)cc1 [Example 7-4, (3S,6R,9S,12R,15S,18R,21S,24R)-6-[[3-[(2-ethylimidazol-1-yl)methyl]phenyl]methyl]-18-[[4-[(2-ethylimidazol-1-yl)methyl]phenyl]methyl]-3,9,15,21-tetraisobutyl-4,10,12,16,22,24-hexamethyl-1,7,13,19-tetraoxa-4,10,16,22-tetrazacyclotetracosane-2,5,8,11,14,17,20,23-octaone]",0.01 to 0.1
2,"Cc1cnn(Cc2ccc(C[C@H]3OC(=O)[C@H](CC(C)C)N(C)C(=O)[C@@H](C)OC(=O)[C@H](CC(C)C)N(C)C(=O)[C@@H](Cc4ccc(Cn5nc(C)c(S(=O)(=O)N6CCCCC6)c5C)cc4)OC(=O)[C@H](CC(C)C)N(C)C(=O)[C@@H](C)OC(=O)[C@H](CC(C)C)N(C)C3=O)cc2)c1 [Example 1a-25, (3S,6R,9S,12R,15S,18R,21S,24R)-6-(4-((3,5-dimethyl-4-(piperidin-1-ylsulfonyl)-1H-pyrazol-1-yl)methyl)benzyl)-3,9,15,21-tetraisobutyl-4,10,12,16,22,24-hexamethyl-18-(4-((4-methyl-1H-pyrazol-1-yl)methyl)benzyl)-1,7,13,19-tetraoxa-4,10,16,22-tetraazacyclotetracosan-2,5,8,11,14,17,20,23-octaone]",0.01 to 0.1
3,"CC(C)C[C@H]1C(=O)O[C@H](Cc2ccc(Cn3ccc(C(C)(C)C)n3)cc2)C(=O)N(C)[C@@H](CC(C)C)C(=O)O[C@H](C)C(=O)N(C)[C@@H](CC(C)C)C(=O)O[C@H](Cc2ccccc2)C(=O)N(C)[C@@H](CC(C)C)C(=O)O[C@H](C)C(=O)N1C [Example 2-72, (3S,6R,9S,12R,15S,18R,21S,24R)-6-benzyl-18-(4-((3-(tert-butyl)-1H-pyrazol-1-yl)methyl)benzyl)-3,9,15,21-tetraisobutyl-4,10,12,16,22,24-hexamethyl-1,7,13,19-tetraoxa-4,10,16,22-tetraazacyclotetracosan-2,5,8,11,14,17,20,23-octaone]",0.01 to 0.1
4,"CCc1nn(Cc2ccc(C[C@H]3OC(=O)[C@H](CC(C)C)N(C)C(=O)[C@@H](C)OC(=O)[C@H](CC(C)C)N(C)C(=O)[C@@H](Cc4ccc(Cn5nc(CC)c(N)c5CC)cc4)OC(=O)[C@H](CC(C)C)N(C)C(=O)[C@@H](C)OC(=O)[C@H](CC(C)C)N(C)C3=O)cc2)c(CC)c1N [Example 1b-133, (3S,6R,9S,12R,15S,18R,21S,24R)-6,18-bis(4-((4-amino-3,5-diethyl-1H-pyrazol-1-yl)methyl)benzyl)-3,9,15,21-tetraisobutyl-4,10,12,16,22,24-hexamethyl-1,7,13,19-tetraoxa-4,10,16,22-tetraazacyclotetracosan-2,5,8,11,14,17,20,23-octaone]",0.01 to 0.1
5,"CC(C)C[C@H]1C(=O)O[C@H](Cc2ccc(CN3CCN(S(C)(=O)=O)CC3)cc2)C(=O)N(C)[C@@H](CC(C)C)C(=O)O[C@H](C)C(=O)N(C)[C@@H](CC(C)C)C(=O)O[C@H](Cc2ccccc2)C(=O)N(C)[C@@H](CC(C)C)C(=O)O[C@H](C)C(=O)N1C [Example 10-10, (3S,6R,9S,12R,15S,18R,21S,24R)-6-benzyl-3,9,15,21-tetraisobutyl-4,10,12,16,22,24-hexamethyl-18-(4-((4-(methylsulfonyl)piperazin-1-yl)methyl)benzyl)-1,7,13,19-tetraoxa-4,10,16,22-tetraazacyclotetracosan-2,5,8,11,14,17,20,23-octaone]",0.01 to 0.1
6,"Cc1cn(Cc2ccc(C[C@H]3OC(=O)[C@H](CC(C)C)N(C)C(=O)[C@@H](C)OC(=O)[C@H](CC(C)C)N(C)C(=O)[C@@H](Cc4ccc(Cn5cc(C)nc5C)cc4)OC(=O)[C@H](CC(C)C)N(C)C(=O)[C@@H](C)OC(=O)[C@H](CC(C)C)N(C)C3=O)cc2)c(C)n1 [Example 6-5, (3S,6R,9S,12R,15S,18R,21S,24R)-6,18-bis(4-((2,4-dimethyl-1H-imidazol-1-yl)methyl)benzyl)-3,9,15,21-tetraisobutyl-4,10,12,16,22,24-hexamethyl-1,7,13,19-tetraoxa-4,10,16,22-tetraazacyclotetracosan-2,5,8,11,14,17,20,23-octaone]",0.01 to 0.1
7,"Cc1c(CO)nn(Cc2ccc(C[C@H]3OC(=O)[C@H](CC(C)C)N(C)C(=O)[C@@H](C)OC(=O)[C@H](CC(C)C)N(C)C(=O)[C@@H](Cc4ccc(Cn5nc(CO)c(C)c5C(F)(F)F)cc4)OC(=O)[C@H](CC(C)C)N(C)C(=O)[C@@H](C)OC(=O)[C@H](CC(C)C)N(C)C3=O)cc2)c1C(F)(F)F [Example 1b-124, (3S,6R,9S,12R,15S,18R,21S,24R)-6,18-bis(4-((3-(hydroxymethyl)-4-methyl-5-(trifluoromethyl)-1H-pyrazol-1-yl)methyl)benzyl)-3,9,15,21-tetraisobutyl-4,10,12,16,22,24-hexamethyl-1,7,13,19-tetraoxa-4,10,16,22-tetraazacyclotetracosan-2,5,8,11,14,17,20,23-octaone]",0.01 to 0.1
8,"CC(C)C[C@H]1C(=O)O[C@H](Cc2ccc(Cn3ccc(-c4cccnc4)n3)cc2)C(=O)N(C)[C@@H](CC(C)C)C(=O)O[C@H](C)C(=O)N(C)[C@@H](CC(C)C)C(=O)O[C@H](Cc2ccc(Cn3ccc(-c4cccnc4)n3)cc2)C(=O)N(C)[C@@H](CC(C)C)C(=O)O[C@H](C)C(=O)N1C [Example 1b-139, (3S,6R,9S,12R,15S,18R,21S,24R)-3,9,15,21-tetraisobutyl-4,6,10,16,18,22-hexamethyl-12,24-bis(4-((3-(pyridin-3-yl)-1H-pyrazol-1-yl)methyl)benzyl)-1,7,13,19-tetraoxa-4,10,16,22-tetraazacyclotetracosan-2,5,8,11,14,17,20,23-octaone]",0.01 to 0.1
9,"Cc1cc(CC#N)nn1Cc1ccc(C[C@H]2OC(=O)[C@H](CC(C)C)N(C)C(=O)[C@@H](C)OC(=O)[C@H](CC(C)C)N(C)C(=O)[C@@H](Cc3ccc(Cn4nc(CC#N)cc4C)cc3)OC(=O)[C@H](CC(C)C)N(C)C(=O)[C@@H](C)OC(=O)[C@H](CC(C)C)N(C)C2=O)cc1 [Example 1b-7, 2,2′-((((((2R,5S,8R,11S,14R,17S,20R,23S)-5,11,17,23-tetraisobutyl-4,8,10,16,20,22-hexamethyl-3,6,9,12,15,18,21,24-octaoxo-1,7,13,19-tetraoxa-4,10,16,22-tetraazacyclotetracosane-2,14-diyl)bis(methylene))bis(4,1-phenylene))bis(methylene))bis(5-methyl-1H-pyrazole-1,3-diyl))diacetonitrile]",0.001 to 0.01
10,"CC(C)C[C@H]1C(=O)O[C@H](Cc2ccc(Cn3ccc(C#N)n3)cc2)C(=O)N(C)[C@@H](CC(C)C)C(=O)O[C@H](C)C(=O)N(C)[C@@H](CC(C)C)C(=O)O[C@H](Cc2ccc(Cn3ccc(C#N)n3)cc2)C(=O)N(C)[C@@H](CC(C)C)C(=O)O[C@H](C)C(=O)N1C [Example 1b-103, 1,1′-(((((2R,5S,8R,11S,14R,17S,20R,23S)-5,11,17,23-tetraisobutyl-4,8,10,16,20,22-hexamethyl-3,6,9,12,15,18,21,24-octaoxo-1,7,13,19-tetraoxa-4,10,16,22-tetraazacyclotetracosane-2,14-diyl)bis(methylene))bis(4,1-phenylene))bis(methylene))bis(1H-pyrazole-3-carbonitrile)]",0.001 to 0.01
11,"CC(C)C[C@H]1C(=O)O[C@H](Cc2ccc(Cn3ccnc3I)cc2)C(=O)N(C)[C@@H](CC(C)C)C(=O)O[C@H](C)C(=O)N(C)[C@@H](CC(C)C)C(=O)O[C@H](Cc2ccccc2)C(=O)N(C)[C@@H](CC(C)C)C(=O)O[C@H](C)C(=O)N1C [Example 8-10, (3S,6R,9S,12R,15S,18R,21S,24R)-6-benzyl-18-(4-((2-iodo-1H-imidazol-1-yl)methyl)benzyl)-3,9,15,21-tetraisobutyl-4,10,12,16,22,24-hexamethyl-1,7,13,19-tetraoxa-4,10,16,22-tetraazacyclotetracosan-2,5,8,11,14,17,20,23-octaone]",0.01 to 0.1
12,"CC(C)C[C@H]1C(=O)O[C@H](Cc2ccc(Cn3cc(-c4ccc(F)cc4)cn3)cc2)C(=O)N(C)[C@@H](CC(C)C)C(=O)O[C@H](C)C(=O)N(C)[C@@H](CC(C)C)C(=O)O[C@H](Cc2ccccc2)C(=O)N(C)[C@@H](CC(C)C)C(=O)O[C@H](C)C(=O)N1C [Example 2-5, (3S,6R,9S,12R,15S,18R,21S,24R)-6-benzyl-18-[[4-[[4-(4-fluorophenyl)pyrazol-1-yl]methyl]phenyl]methyl]-3,9,15,21-tetraisobutyl-4,10,12,16,22,24-hexamethyl-1,7,13,19-tetraoxa-4,10,16,22-tetrazacyclotetracosane-2,5,8,11,14,17,20,23-octaone]",0.01 to 0.1
13,"CC(C)C[C@H]1C(=O)O[C@H](Cc2ccc(Cn3cc(C#CC4CC4)cn3)cc2)C(=O)N(C)[C@@H](CC(C)C)C(=O)O[C@H](C)C(=O)N(C)[C@@H](CC(C)C)C(=O)O[C@H](Cc2ccccc2)C(=O)N(C)[C@@H](CC(C)C)C(=O)O[C@H](C)C(=O)N1C [Example 2-75, (3S,6R,9S,12R,15S,18R,21S,24R)-6-benzyl-18-(4-((4-(cyclopropylethynyl)-1H-pyrazol-1-yl)methyl)benzyl)-3,9,15,21-tetraisobutyl-4,10,12,16,22,24-hexamethyl-1,7,13,19-tetraoxa-4,10,16,22-tetraazacyclotetracosan-2,5,8,11,14,17,20,23-octaone]",0.001 to 0.01
14,"CC(C)C[C@H]1C(=O)O[C@H](Cc2ccc(Cn3ccc(N4CCOCC4)n3)cc2)C(=O)N(C)[C@@H](CC(C)C)C(=O)O[C@H](C)C(=O)N(C)[C@@H](CC(C)C)C(=O)O[C@H](Cc2ccc(Cn3ccc(N4CCOCC4)n3)cc2)C(=O)N(C)[C@@H](CC(C)C)C(=O)O[C@H](C)C(=O)N1C [Example 1b-105, (3S,6R,9S,12R,15S,18R,21S,24R)-3,9,15,21-tetraisobutyl-4,6,10,16,18,22-hexamethyl-12,24-bis(4-((3-morpholino-1H-pyrazol-1-yl)methyl)benzyl)-1,7,13,19-tetraoxa-4,10,16,22-tetraazacyclotetracosan-2,5,8,11,14,17,20,23-octaone]",0.001 to 0.01
